The nature of data set [1]: daily intake of NMN for 90 days, long-term safety. The data set is classed as in vivo. As to conditions: 500 mg daily for 90 days.
Data set [2] in a line: PQQ supplementation over an 8-week period. Format: in vivo. Particulars: 8-week period of supplementation. The source says: In another embodiment, PQQ supplementation promotes mitochondrial biogenesis and boosts oxidative metabolism, resulting in increased energy production. […] PQQ acts as a potent antioxidant, reducing oxidative stress by neutralizing harmful free radicals and lowering inflammation. By protecting neurons from oxidative damage, PQQ supplementation contributes to improved cognitive performance, including enhanced memory, attention, and mental clarity.

Structures are written as SMILES.

Turning to `NC(=O)c1ccc[n+]([C@@H]2O[C@H](COP(=O)([O-])O)[C@@H](O)[C@H]2O)c1` [NMN, nicotinamide mononucleotide], the “impact on blood sugar, liver function, or kidney function” value in data set [1] is given as “no impact on blood sugar, liver function, or kidney function”. With `O=C(O)c1cc(C(=O)O)c2c(n1)C(=O)C(=O)c1cc(C(=O)O)[nH]c1-2` [PQQ, pyrroloquinoline quinone], in data set [2], the cognitive function entry is on record as “enhances cognitive function” and the oxidative stress result was “reduces oxidative stress”.

The record behind these values is patent US20250213482A1, “OXYGEN-ENHANCED ADAPTIVE FUNCTIONAL BEVERAGE FOR ANTI-AGING AND METHOD OF PREPARATION” (priority 2025, published 2025).
